Counter-ions that a name gives are not always drawn. Like-named read-outs stand apart in the source and are kept apart here.
Key:
[1] = biological target: T1, mu receptor (Rattus norvegicus, UniProt P33535); test: opioid receptor binding assay, [3H] NAL (tritiated naloxone), mu receptor; design: species or system rat (Male Sprague Dawley), brain minus cerebellum
T1 construct: rat whole brain minus cerebellum for mu was homogenized; from tissue; host or cells: brain of male Sprague Dawley rats, whole brain minus cerebellum, homogenate fraction
T1 sequence (P33535 whole entry): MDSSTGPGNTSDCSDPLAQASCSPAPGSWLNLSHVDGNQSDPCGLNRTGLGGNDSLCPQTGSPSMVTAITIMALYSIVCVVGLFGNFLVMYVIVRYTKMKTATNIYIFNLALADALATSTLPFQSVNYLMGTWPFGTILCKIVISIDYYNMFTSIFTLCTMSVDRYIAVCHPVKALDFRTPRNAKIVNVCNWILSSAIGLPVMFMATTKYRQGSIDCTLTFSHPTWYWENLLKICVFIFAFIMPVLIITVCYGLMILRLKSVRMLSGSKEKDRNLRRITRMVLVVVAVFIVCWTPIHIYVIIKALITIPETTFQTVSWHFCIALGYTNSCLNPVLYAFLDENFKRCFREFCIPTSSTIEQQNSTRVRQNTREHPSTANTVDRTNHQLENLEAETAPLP
Method: This assay was conducted by the following procedure.
Male Sprague Dawley rats for mu site experiments were sacrificed via decapitation and the brains were removed. The brain tissue, rat whole brain minus cerebellum for mu was homogenized in a Teflon and glass tissue homogenizer. A supernatant I, pellet IV, fraction was frozen in a nitrogen freezer at 1.33 g/ml concentration and stored for not longer than five weeks prior to use. Pellets were rehydrated with physiological buffer prior to use.
The reaction was initiated by the addition of the resuspended tissue which had been preincubated at 37° C. for 20 minutes. The reaction mixture was incubated in a 37° C. water bath for 20 minutes. The reaction was terminated by rapid filtration, (Brandel Cell Harvestor), through Whatman GF/B glass filters that had been presoaked in Krebs-Hepes buffer pH 7.4. The filters were then washed 2x with 5 ml of ice cold Krebs-Hepes buffer pH 7.4. Washed filters were placed in scintillation vials and 10 ml RedySolv, (Brandel), was added and samples counted in a Searle D-300 beta counter. Means and standard error statistics were calculated for triplicate experimental determinations in certain cases. The incubation time for the reaction mixture was 20 minutes at 37° C.
Ki values were calculated using a minitab statistical program according to the following formula: [formula] wherein IC50 is the concentration at which 50% of the ^3 H ligand is displaced by the test compounds and KD is the dissociation constant for the ^3 H ligand at the receptor site. KD can be determined as described by Bennett, "Methods in Binding Studies", Neurotransmitter Receptor Binding, Yamamura, et al., ed., p. 57-90, Raven Press, N.Y. (1978) incorporated herein by reference.
In the Table, column 1 sets forth the Example Number of the compound evaluated, column 2 the Ki value in nanomolar (nM) at the mu receptor and columns 3 and 4 the percent displacement by the test compound at the indicated concentration, i.e., 10 nm or 100 nm.

[2] = biological target: T2, peripheral opioid receptors (Mus musculus, UniProt P42866); test: precipitated diarrhea in morphine-maintained mice (peripheral opioid activity) and comparison with the writhing test; format: in vivo; design: ED50 (diarrhea): unit not given beside the values; settings: for Ratio (AD50 mouse writhing test / ED50 mouse diarrhea test): higher ratio = greater relative antagonism of peripheral opioid receptors; for ED50: mouse, 0.5 h; for ED50 / ED50 (diarrhea): morphine-maintained mice, antagonist subcutaneous or oral, 30 min observation; for ED50 (diarrhea): 30 min
T2 construct: Mice maintained (6 mice/cage) on 0.01M saccharin water with 1 g/1 morphine sulfate; from tissue; host or cells: living morphine-maintained mice (in vivo test; endogenous receptor)
T2 sequence (P42866 whole entry): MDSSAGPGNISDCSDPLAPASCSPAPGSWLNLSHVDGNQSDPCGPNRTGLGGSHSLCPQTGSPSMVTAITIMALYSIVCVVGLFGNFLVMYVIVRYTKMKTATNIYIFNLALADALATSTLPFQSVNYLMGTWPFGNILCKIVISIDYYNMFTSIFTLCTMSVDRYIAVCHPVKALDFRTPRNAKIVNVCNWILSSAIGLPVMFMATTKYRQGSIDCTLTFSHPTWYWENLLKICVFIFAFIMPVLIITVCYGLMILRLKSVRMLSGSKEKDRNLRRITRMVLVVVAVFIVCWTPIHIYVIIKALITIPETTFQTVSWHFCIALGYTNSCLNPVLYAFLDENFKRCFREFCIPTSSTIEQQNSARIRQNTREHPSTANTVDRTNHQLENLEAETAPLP
Method: Determinations of peripheral opioid activity were conducted. Mice maintained (6 mice/cage) on 0.01M saccharin water with 1 g/1 morphine sulfate for a minimum of 10 days with mice averaging 3.0^+ g water/mouse/day for at least three days are used as subjects. The morphine water was removed 45 min. prior to injection with the proposed opioid antagonist. Initial testing consisted of 5 mice/dose of compound. The antagonist was given by the subcutaneous or oral, route of administration,and the mice were placed in 11-14"×4 7/12 I.D. clear plastic cylinders with white paper towels used for a floor.
The mice were then monitored visually for 30 minutes post-injection for the presence of jumping and of diarrhea. Jumping was scored as positive if at least one jump occurred in 30 min. Diarrhea was scored as positive when feces were moist enough to stain the white paper at the base of the cylinder. After 30 minutes of testing, the mice were placed back in original cages, put back on morphine water, and not tested again for 48 hrs. Lower doses of the antagonist compounds were tested until threshold doses for diarrhea were determined. Diarrhea is a peripherally mediated sign of precipitated opiate abstinence.
The extent of the effect on peripheral activity compared to central activity of the present compounds can-be determined by comparing the AD50 for the mouse writhing test with the ED50 for the mouse diarrhea test. The higher the ratio, the greater the relative antagonism of the peripheral opioid receptors by a particular compound.

[3] = biological target: T3, opioid receptor (Mus musculus, UniProt P42866); test: mouse writhing analgesis test: block of morphine-induced analgesia; format: in vivo, CF-1 male mice; design: unit not given here; settings: dose of antagonist that reduced the inhibition of writhing produced by 1.25 mg/kg morphine sulfate to 50%, subcutaneous, 20 min before acetic acid
T3 construct: Five CF-1 male mice (Charles River, Portage, Mich.); from tissue; host or cells: living CF-1 male mice (in vivo test; endogenous receptor)
T3 sequence (P42866 whole entry): as above
Method: In order to determine in vivo opioid receptor antagonism, the mouse writhing analgesis test was used. Test compounds were measured for their ability to block morphine-induced analgesia.
Five CF-1 male mice (Charles River, Portage, Mich.), weighing approximately 20 g after being fasted overnight, were observed simultaneously for the writhing response. The writhing response was defined as a contraction of the abdominal musculature, followed by the extension of the hind limbs, and was induced by the intraperitoneal adminstration of 0.6% acetic acid in a volumne of 1 ml/100 g body weight. The observation period was 10 min. in duration, beginning 5 min. after injection of acetic acid. The percent inhibition of writhing was calculated from the average number of writhes in the control (non-drug) group. Each data point is the mean (±standarderror) for five mice. The ED50 was defined as the dose of agonist that inhibited mean writhing by 50%. […] Each mouse was only used once. All drugs were administered subcutaneously (1 ml/100 g bwt) 20 min. before the injection of acetic acid.

[4] = 20 min, read-out: % displacement at 10 nM
[5] = 20 min, read-out: % displacement at 100 nM
[6] = 20 min, read-out: % displacement at 10 nM, 10 nM test compound, [3H] naloxone 0.5 nM
[7] = 20 min, read-out: % displacement at 100 nM, 100 nM test compound, [3H] naloxone 0.5 nM
[8] = [3H] naloxone 0.5 nM, pH 7.4, 37° C., 20 min

SMILES	Ki [1]	Ratio (AD50 mouse writhing test / ED50 mouse diarrhea test) [2]	ED50 [2]	AD50 [3]	inhibition at 0.01 µM [1, 6]	inhibition at 0.1 µM [1, 7]	Ki [1, 8]	further results
CCOC(=O)C(Cc1ccccc1)CN1CC[C@@](C)(c2cccc(O)c2)[C@@H](C)C1 (relative stereo) [Example 4A, trans-4-(3-hydroxyphenyl)-3,4-dimethyl-a-(phenylmethyl)-1-piperidinepropanoic acid, ethyl ester hydrochloride]	1.38 nM	9	0.012 mg/kg	1.08	–	–	–	inhibition at 0.01 µM [1, 4]: 92%; inhibition at 0.1 µM [1, 5]: 98%
C[C@H]1CN(CC(Cc2ccccc2)C(=O)O)CC[C@@]1(C)c1cccc(O)c1 (relative stereo) [Example 4B, 4-(3-hydroxyphenyl)-3,4-dimethyl-a-(phenylmethyl)-1-piperidinepropanoic acid monohydrate]	2.62 nM	809	0.011 mg/kg	8.90	–	–	–	inhibition at 0.01 µM [1, 4]: 83%; inhibition at 0.1 µM [1, 5]: 97%
CCOC(=O)C(CC1CCCCC1)CN1CC[C@@](C)(c2cccc(O)c2)[C@@H](C)C1 (relative stereo) [Example 5A, 3-(3,4-dimethyl-4-(3-hydroxyphenyl)-1-piperidinyl]-2-(cyclohexylmethyl)propanoic acid ethyl ester hydrochloride]	13.8 nM	20	0.06 mg/kg	1.2	61%	93%	–	–
C[C@H]1CN(CC(CC2CCCCC2)C(=O)O)CC[C@@]1(C)c1cccc(O)c1 (relative stereo) [Example 5B, 3-[3,4-dimethyl-4-(3-hydroxyphenyl)-1-piperidinyl]-2-(cyclohexylmethyl)-propanoic acid monohydrate]	1.11 nM	7	0.24 mg/kg	1.6	93%	99%	–	–
CCOC(=O)C(CCN1CC[C@@](C)(c2cccc(O)c2)[C@@H](C)C1)c1ccccc1 (relative stereo) [Example 8A, trans-4-[(3-Hydroxyphenyl)-3,4-dimethyl-1-piperidine]-2-phenyl butanoic acid, ethyl ester hydrochloride]	–	35	0.02 mg/kg	0.70	88%	95%	2.01 nM	–
C[C@H]1CN(CCC(C(=O)O)c2ccccc2)CC[C@@]1(C)c1cccc(O)c1 (relative stereo) [Example 8B, trans-4-[(3-Hydroxyphenyl)-3,4-dimethyl-1-piperidine]-2-phenyl butanoic acid hydrochloride]	–	53	0.012 mg/kg	0.64	100%	100%	0.27 nM	–
C[C@H]1CN(CCC(C(=O)O)C2CCCCC2)CC[C@@]1(C)c1cccc(O)c1 (relative stereo) [Example 9B, hydrochloride]	0.66 nM	75	0.02 mg/kg	1.50	90%	93%	–	–
C[C@H]1CN(CCC(C(=O)N(C)C)c2ccccc2)CC[C@@]1(C)c1cccc(O)c1 (relative stereo) [Example 10, trans-4-[(3-hydroxyphenyl)-3,4-dimethyl-1-piperidinyl]-2-phenyl-N,N-dimethylbutanamide hydrochloride]	1.17 nM	9	0.06 mg/kg	0.54	89%	100%	–	–
CNC(=O)CNC(=O)C(CCN1CC[C@@](C)(c2cccc(O)c2)[C@@H](C)C1)c1ccccc1 (relative stereo) [Example 13, N-(methyl)-2-[[4-[4-(3-hydroxyphenyl)-3,4-dimethyl-1-piperidinyl]-2-phenyl-1-oxobutyl]amino]acetamide monohydrochloride]	–	> 125	0.32 mg/kg	–	94%	95%	0.43 nM	–
C[C@H]1CN(CCC(C(=O)NCC(N)=O)c2ccccc2)CC[C@@]1(C)c1cccc(O)c1 (relative stereo) [Example 14, trans-N-(2-amino-2-oxoethyl)-4-[3,4-dimethyl-4-(3-hydroxyphenyl)-1-piperidinyl]-2-phenylbutanamide monohydrochloride monohydrate]	6.42 nM	> 43	0.92 mg/kg	–	–	93%	–	inhibition at 0.01 µM [1, 4]: 87%
CC(C)COC(=O)CNC(=O)C(Cc1ccccc1)CN1CC[C@@](C)(c2cccc(O)c2)[C@@H](C)C1 (single isomer, unassigned) [Example 97D]	–	–	–	–	–	–	–	Ratio (AD50 mouse writhing test / ED50 mouse diarrhea test) ([2]; listed as 97D*): 317; Ratio (AD50 mouse writhing test / ED50 mouse diarrhea test) ([2]; listed as 97D**): 53; ED50 (diarrhea) ([2]; listed as 97D**): 0.6; ED50 (diarrhea) ([2]; listed as 97D*): 0.04; AD50 ([3]; listed as 97D**, 1.25 mg/kg): 32; AD50 ([3]; listed as 97D*, 1.25 mg/kg): 12.7
C[C@H]1CN(CC(Cc2ccccc2)C(=O)NCC(=O)OC2CCCCC2)CC[C@@]1(C)c1cccc(O)c1 (stereo partly shown) [Example 52, 2-[[2-(phenylmethyl)-1-oxo-3-[4-(3-hydroxyphenyl)-3,4-dimethyl-1-piperidinyl]propyl]amino]-ethanoic acid cyclohexyl ester monohydrochloride]	–	40	0.2 mg/kg	–	–	–	–	inhibition at 0.01 µM ([1]; 20 min, 10 nM test compound, [3H] naloxone 0.5 nM, read-out: % displacement at 10 nM): 53%; inhibition at 0.1 µM ([1]; 20 min, 100 nM test compound, [3H] naloxone 0.5 nM, read-out: % displacement at 100 nM): 92%
CCOC(=O)CCCNC(=O)C(Cc1ccccc1)CN1CC[C@@](C)(c2cccc(O)c2)[C@@H](C)C1 (stereo partly shown) [Example 61, 4-[[3-[4-(3-hydroxyphenyl)-3,4-dimethyl-1-piperidinyl]-1-oxo-2-(phenylmethyl)propyl]-amino]butanoic acid ethyl ester monohydrochloride monohydrate]	–	66	0.05 mg/kg	–	98%	99%	1.91 nM	–

— patent US5250542A, “Peripherally selective piperidine carboxylate opioid antagonists” (Eli Lilly and Company, priority 1992, dated 1993)
